{"source": "patent US20230055568A1", "about": "“THERAPEUTIC AGENT FOR MYALGIC ENCEPHALOMYELITIS/CHRONIC FATIGUE SYNDROME” (MITSUBISHI TANABE PHARMA CORPORATION, priority 2020, published 2023)", "test_system": "water-immersion stress loaded rat (fatigue rat) model", "experiment": "weight-loaded forced swimming test in ME/CFS animal model (water-immersion stress loaded fatigue rat)", "assay_type": "in vivo", "settings": "Slc:SD fatigue rat, compared to fatigue control group, hydrochloride", "description": "A […] encephalomyelitis/chronic fatigue syndrome (ME/CFS)-improving effect by the administration of the compound (amiselimod hydrochloride) relating to the present invention was verified as follows according to the method of Tanaka et al. (Establishment and assessment of a rat model fatigue. Neuroscience letters 2003, 352: 159-162) using a water-immersion stress loaded rat (fatigue rat) model. The animal used was 9-week-old Slc:SD rat. The rats were bred (water-immersion breeding) for 6 days in a plastic cage (W: 445×D: 276×H: 204 mm) containing tap water (water temperature: 23±1° C.) to a height of 1.5 cm, and a weight-loaded forced swimming test was conducted. on the final day. In the weight-loaded forced swimming test, a rat with a weight equivalent to 8% of its body weight attached to its tail was placed in a circular water tank (diameter: 18 cm, height: 70 cm, water depth: 40 cm, water temperature: 23±1° C.), and the time from the start of swimming until the rat's nose sinks from the water surface for 20 seconds was measured. The weight-loaded forced swimming test was conducted blindly. Amiselimod hydrochloride (0.1, 0.3 and 1 mg/kg administration) was orally administered once a day for 6 days from the start date of the water-immersion breeding. As control groups, a normal control group for normal breeding and a fatigue control group for water-immersion breeding were set, and the vehicle (0.5% HPMC) was administered to both groups. The number of cases was 10 in each group.", "note": "Entries after “also recorded” stand apart in the source; their conditions may differ."}
{"smiles": "CCCCCCCOc1ccc(CCC(N)(CO)CO)cc1C(F)(F)F.Cl", "note": "[amiselimod hydrochloride, 2-amino-2-[2-(4-heptyloxy-3-trifluoromethylphenyl)ethyl]propane-1,3-diol hydrochloride]", "values": [{"measurement": "swimming time in weight-loaded forced swimming test", "setting": "0.1 mg/kg orally once a day for 6 days, 0.1 mg/kg", "result": "significant difference was observed; also recorded: significantly prolonged the swimming time"}, {"measurement": "swimming time in weight-loaded forced swimming test", "setting": "0.3 mg/kg orally once a day for 6 days, 0.3 mg/kg", "result": "significant difference was observed; also recorded: significantly prolonged the swimming time"}, {"measurement": "swimming time in weight-loaded forced swimming test", "setting": "1 mg/kg orally once a day for 6 days, 1 mg/kg", "result": "significant difference was observed; also recorded: significantly prolonged the swimming time"}]}
